According to patent US7521472B2, “Crystal of two-ring heterocyclic sulfonamide compound” (Eisai R&D Management Co., Ltd., priority 2004, dated 2009):

Columns and labels:
Assay type in all cases: physicochemical
[1] = Physical properties of the β-type crystal (crystal form stability, hygroscopicity)
[2] = Solubility of α-type and β-type crystals in Britton-Robinson buffers (I=0.3); details: for Solvent amount (ml) required to solve 1 g of compound (1): 25° C. within 30 minutes
Description: (§1) The results are shown in Tables 5 to 8. • (1) Test method:
(§2) The solubility in organic solvents and buffer solutions (Britton-Robinson Buffer: ionic strength (I)=0.3) was examined.
(§3) Specifically, according to the method described in USP 25 (U.S. PHARMACOPEIA 25(USP25), p 8, General Notices, Solubility), crystalline N-(3-chloro-1H-indol-7-yl)-4-sulfamoylbenzenesulfonamide was evaluated in terms of solubility in various organic solvents and Britton-Robinson buffers (pH 3, 5, 7, 9, and 11; I=0.3). The amount of each solvent was recorded that was required to solve a 10-mg sample of (N-(3-chloro-1H-indol-7-yl)-4-sulfamoylbenzenesulfonamide) at 25° C. within 30 minutes. In this study, the container was vigorously shaken for 30 seconds every 5 minutes, and the solubility was visually checked. • (2) Results: […]

[3] = Solubility of α-type and β-type crystals in organic solvents and water (USP 25 method); details: for Solvent amount (ml) required to solve 1 g of compound (1): 25° C. within 30 minutes
Description: as §1, §2, §3

[4] = Britton-Robinson Buffer pH 3, I=0.3
[5] = Britton-Robinson Buffer pH 5, I=0.3
[6] = Britton-Robinson Buffer pH 7, I=0.3
[7] = Britton-Robinson Buffer pH 9, I=0.3
[8] = Britton-Robinson Buffer pH 11, I=0.3

Compound | hygroscopicity [1] | stability of the crystal form ([1]; transformation into other crystal forms or amorphous forms) | Solvent amount (ml) required to solve 1 g of compound (1) [2, 4] | Solvent amount (ml) required to solve 1 g of compound (1) [2, 5] | Solvent amount (ml) required to solve 1 g of compound (1) [2, 6] | Solvent amount (ml) required to solve 1 g of compound (1) [2, 7] | Solvent amount (ml) required to solve 1 g of compound (1) [2, 8] | solubility in the buffer solution compared with the α-type crystal ([2]; Britton-Robinson Buffer, ionic strength 0.3) | Solvent amount (ml) required to solve 1 g of compound (1) ([3]; 1-octanol) | Solvent amount (ml) required to solve 1 g of compound (1) ([3]; Acetone) | Solvent amount (ml) required to solve 1 g of compound (1) ([3]; Acetonitrile) | Solvent amount (ml) required to solve 1 g of compound (1) ([3]; Ethanol) | Solvent amount (ml) required to solve 1 g of compound (1) ([3]; Ethyl acetate) | Solvent amount (ml) required to solve 1 g of compound (1) ([3]; Heptane) | Solvent amount (ml) required to solve 1 g of compound (1) ([3]; Isopropylether) | Solvent amount (ml) required to solve 1 g of compound (1) ([3]; Methanol) | Solvent amount (ml) required to solve 1 g of compound (1) ([3]; N,N-dimethylformamide) | Solvent amount (ml) required to solve 1 g of compound (1) ([3]; Water) | solubility in various organic solvents in comparison with the α-type crystal ([3]; for example, ethanol, ethyl acetate)
NS(=O)(=O)c1ccc(S(=O)(=O)Nc2cccc3c(Cl)c[nH]c23)cc1 [compound (1) (β-type crystal), N-(3-chloro-1H-indol-7-yl)-4-sulfamoylbenzenesulfonamide] | non hygroscopicity | stable | >10000 mL | >10000 mL | >10000 mL | >10000 mL | 553 mL | higher solubility | >10000 mL | 14 mL | 74 mL | 373 mL | 322 mL | >10000 mL | >10000 mL | 60 mL | 6 mL | >10000 mL | high solubility
NS(=O)(=O)c1ccc(S(=O)(=O)Nc2cccc3c(Cl)c[nH]c23)cc1 [compound (1) (α-type crystal), N-(3-chloro-1H-indol-7-yl)-4-sulfamoylbenzenesulfonamide, reference compound] | – | – | >10000 mL | >10000 mL | >10000 mL | >10000 mL | 993 mL | – | >10000 mL | 21 mL | 97 mL | 1194 mL | 1090 mL | >10000 mL | >10000 mL | 100.4 mL | 9.6 mL | >10000 mL | –
